# Like-named read-outs stand apart in the source and are kept apart here.
# Columns and labels:
# SARS-CoV-2 = tested on: SARS-CoV-2; design: method as in Wasilewicz et al., 2023; settings: reported to be based on inhibition of the viral main protease, ref Wasilewicz et al., 2023; read-out: anti-SARS-CoV-2 activity IC50; cited from earlier work
# Calu-3 monolayer [1] = tested on: Calu-3 monolayer
# [2] = pH-dependent thermodynamic solubility, miniaturized shake-flask method, UPLC-PDA; settings: for solubility thermodynamic at 24 h: 24 °C, thermodynamic from solid
# [3] = potentiometric logP, water-octanol (SiriusT3); format: physicochemical; settings: octanol/water, experimental, mean ± S.D., n = 3, read-out: logP
# Method: LogP (partition coefficient) evaluation was performed via SiriusT3. The potentiometric logP measurement relies on assessing the partition profile of the test substance within a two-phase water-octanol solvent system. Changes in the relative volume ratio of octanol to water lead to shifts in the apparent pKa, resulting from the partitioning between non-ionised and ionised forms. LogP values were then estimated based on these assessments.
# [4] = Calu-3 cell viability, MTT assay; settings: human
# [5] = UV-metric pKa measurement (SiriusT3); format: physicochemical; settings: experimental, SiriusT3, 25 °C, mean ± S.D.
# Method: Experimental pKa (−log10 of the acid dissociation equilibrium constant) values of SGC and SGD were evaluated using the UV-metric pKa measurement method of the SiriusT3 automated titrator instrument and the corresponding software SiriusT3Control and SiriusT3Refine (Pion Inc., Billerica, USA). The SiriusT3 apparatus uses a deuterium lamp to determine the UV/Vis absorbance spectrum of the test solutions at each pH point. The standard aqueous UV-metric pKa measurement protocol was conducted according to manufacturer instructions. […] This was mixed with 25 μL phosphate buffer (14.7 mM K2HPO4 and 0.15 M KCl in MilliQ water) and diluted with 1.5 mL ionic strength-adjusted water (ISA water ≡ 0.15 M KCl in MilliQ water). The subsequent acid/base titration and measurement of UV absorbance was automatically performed by the SiriusT3 at 25.0 ± 0.5 °C. […] Turbidity was monitored by a turbidity sensor to ensure the absence of precipitation of the test compounds during the experiment, since accurate pKa measurements are limited to fully dissolved substances. In case turbidity occurred, individual titrations were not used for further analysis, resulting in a total of 11 analysable titrations across the 5 replicate samples for both SGC and SGD.
# Calu-3 monolayer [6] = tested on: Calu-3 monolayer; remark: listed apart in the source
# Calu-3 cells = experiment: Calu-3 cell uptake, FIA-TOFMS; format: in vitro ADME, human; settings: 50 µg/mL; for Concentration [pg/µL] 1 in cell extract / Normalized concentration [pg/cell] 1: replicate 1; for Concentration [pg/µL] 2 in cell extract / Normalized concentration [pg/cell] 2: replicate 2; for Concentration [pg/µL] 3 in cell extract / Normalized concentration [pg/cell] 3: replicate 3
# Method: At 4, 12, and 24 h after addition, cell extracts were generated in triplicates. To that end, the medium was aspirated from the respective wells, and cells were washed with pre-warmed ammonium carbonate solution (75 mM, pH 7.4, 37 °C). Immediately after removal of the wash solvent, 300 μL cold extraction solvent (40:40:20 acetonitrile:methanol:water, −20 °C) was added per well to lyse cells in situ and stop the enzymatic activity. The bottom of each well was subsequently scraped and the cell extracts were transferred to 96-well storage plates and stored at −80 °C until analysis. […] Quantification of SGC and SGD was performed using flow-injection time-of-flight mass spectrometry (FIA-TOFMS) in negative ion mode as described previously ([Fuhrer et al., 2011]). SGC and SGD signals were identified by matching accurate masses (for both [M-H]- at 707.2127 m/z). To account for possible influences of the complex matrix in the cell extract samples, a matrix-matched series of calibration samples were prepared, in which increasing concentrations of SGC were spiked into extracts of cells that had not previously been treated with either SGC or SGD. The calibration samples were injected alongside the cell extract samples and used to establish a calibration function using linear regression. The ion intensities measured were converted into SGC and SGD concentrations and normalized by the cell number in each sample, which was determined at each time point in separate cell cultures using trypan blue staining and cell counting in a Thermo Fisher Countess II Automated cell counter after trypsin-mediated cell detachment. This procedure eventually yielded estimates of SGC and SGD contents in pg/cell.
structure (smiles),measurement,setting,value
"CC(C)=CC[C@]12Oc3cc(O)c([C@H]4C=C(C)C[C@H](c5ccc(O)cc5O)[C@H]4C(=O)c4ccc(O)cc4O)c(O)c3C(=O)[C@@]1(O)Oc1cc(O)ccc12 [SGC, sanggenon C]",IC50,SARS-CoV-2,7.2 µM
same,evidence for permeability of SGC or SGD,Calu-3 monolayer [1],"Neither by applying the isolated compounds nor the extracts MA60 and MA21, any evidence for the permeability of SGC or SGD was detectable"
same,permeability across intact Calu-3 monolayers,Calu-3 monolayer [1],no measurable permeability
same,solubility thermodynamic at 24 h,"[2]; HCl buffer, pH 1.2, simulated gastric fluid",0.00447 mg/mL
same,solubility thermodynamic at 24 h,"[2]; acetate buffer, pH 4.5, aqueous buffer",0.00853 mg/mL
same,pH 1.2 solubility,"[2]; compound within extract MA21, pH 1.2",< LOQ
same,pH 4.5 solubility,"[2]; compound within extract MA21, pH 4.5",< LOQ
same,pH 6.8 solubility,"[2]; compound within extract MA21, pH 6.8",4.05 µg/mL
same,pH 7.4 solubility,"[2]; compound within extract MA21, pH 7.4",3.24 µg/mL
same,pH 1.2 solubility,"[2]; compound within extract MA60, pH 1.2",6.88 µg/mL
same,pH 4.5 solubility,"[2]; compound within extract MA60, pH 4.5",< LOQ
same,pH 6.8 solubility,"[2]; compound within extract MA60, pH 6.8",12.7 µg/mL
same,pH 7.4 solubility,"[2]; compound within extract MA60, pH 7.4",13.6 µg/mL
same,solubility thermodynamic at 24 h,"[2]; phosphate buffer, pH 6.8, aqueous buffer",0.0185 mg/mL
same,solubility thermodynamic at 24 h,"[2]; phosphate buffer, pH 7.4, aqueous buffer",0.0471 mg/mL
same,logP,[3],3 to 3.5
same,CC50 at 24 h,[4],47.8 mg/L
same,pKa,[5]; read-out: pKa 1,2.64 ± 0.69
same,pKa,[5]; read-out: pKa 2,5.2 ± 0.8
same,pKa,[5]; read-out: pKa 3,6.74 ± 0.14
same,pKa,[5]; read-out: pKa 4,7.97 ± 0.06
same,pKa,[5]; read-out: pKa 5,9 ± 0.04
same,pKa,[5]; read-out: pKa 6,9.84 ± 0.05
same,pKa,[5]; read-out: pKa 7,10.7 ± 0.02
same,pKa,[5]; read-out: pKa 8,12.05 ± 0.07
same,"change in TEER during permeability study, B-A direction",Calu-3 monolayer [6],a decrease in TEER values was also observed
same,"intracellular content, Mean [pg/cell]",Calu-3 cells; 4 h,2.0 ± 0.1 pg/cell
same,Concentration [pg/µL] 1 in cell extract,Calu-3 cells; 4 h,4284 pg/µL
same,Normalized concentration [pg/cell] 1,Calu-3 cells; 4 h,2.09 pg/cell
same,Concentration [pg/µL] 2 in cell extract,Calu-3 cells; 4 h,3851 pg/µL
same,Normalized concentration [pg/cell] 2,Calu-3 cells; 4 h,1.88 pg/cell
same,Concentration [pg/µL] 3 in cell extract,Calu-3 cells; 4 h,3902 pg/µL
same,Normalized concentration [pg/cell] 3,Calu-3 cells; 4 h,1.90 pg/cell
same,"intracellular content, Mean [pg/cell]","Calu-3 cells; 4 h, listed as Sanggenon C",1.96 pg/cell
same,"intracellular content, Mean [pg/cell]",Calu-3 cells; 12 h,5.54 pg/cell
same,Concentration [pg/µL] 1 in cell extract,Calu-3 cells; 12 h,13620 pg/µL
same,Normalized concentration [pg/cell] 1,Calu-3 cells; 12 h,5.77 pg/cell
same,Concentration [pg/µL] 2 in cell extract,Calu-3 cells; 12 h,13397 pg/µL
same,Normalized concentration [pg/cell] 2,Calu-3 cells; 12 h,5.67 pg/cell
same,Concentration [pg/µL] 3 in cell extract,Calu-3 cells; 12 h,12248 pg/µL
same,Normalized concentration [pg/cell] 3,Calu-3 cells; 12 h,5.19 pg/cell
same,"intracellular content, Mean [pg/cell]",Calu-3 cells; 24 h,8.1 ± 0.3 pg/cell
same,Concentration [pg/µL] 1 in cell extract,Calu-3 cells; 24 h,17926 pg/µL
same,Normalized concentration [pg/cell] 1,Calu-3 cells; 24 h,8.34 pg/cell
same,Concentration [pg/µL] 2 in cell extract,Calu-3 cells; 24 h,16862 pg/µL
same,Normalized concentration [pg/cell] 2,Calu-3 cells; 24 h,7.85 pg/cell
same,Concentration [pg/µL] 3 in cell extract,Calu-3 cells; 24 h,17411 pg/µL
same,Normalized concentration [pg/cell] 3,Calu-3 cells; 24 h,8.11 pg/cell
same,"intracellular content, Mean [pg/cell]","Calu-3 cells; 24 h, listed as Sanggenon C",8.10 pg/cell

# From PMC11381475, “Biopharmaceutical profiling of anti-infective sanggenons from Morus alba root bark for inhalation administration” (International Journal of Pharmaceutics: X, 2024)
